Test results: ChEMBL document CHEMBL6120973 (J Med Chem, 2024)
pEC50, pIC50: −log10 of the molar value.

Columns and labels:
[1] = Cytotoxicity against human MT4 cells assessed as reduction in cell viability measured after 5 days by MTT assay; conditions: MT4 cells
[2] = tested on: Human immunodeficiency virus 1; assay: Antiviral activity against wildtype HIV-1 IIIB infected in human MT4 cells assessed as protection against virus-induced cytopathic effect incubated for 5 days by MTT assay; type: functional, organism-based; conditions: Human immunodeficiency virus 1, IIIB, MT4, 120 h
[3] = Selectivity index, ratio of CC50 for human MT4 cells to EC50 for wild type HIV-1 IIIB infected in human MT4 cellS
[4] = tested on: Human immunodeficiency virus 1; assay: Antiviral activity against HIV-1 harboring RT Y188L mutant infected in human MT4 cells assessed as protection against virus-induced cytopathic effect incubated for 5 days by MTT assay; type: functional, organism-based; conditions: Human immunodeficiency virus 1, MT4, 120 h
[5] = tested on: Human immunodeficiency virus 1; assay: Antiviral activity against HIV-1 harboring RT Y181C mutant infected in human MT4 cells assessed as protection against virus-induced cytopathic effect incubated for 5 days by MTT assay; type: functional, organism-based; conditions: Human immunodeficiency virus 1, MT4, 120 h
[6] = tested on: Human immunodeficiency virus 1; assay: Antiviral activity against HIV-1 harboring RT L100I mutant infected in human MT4 cells assessed as protection against virus-induced cytopathic effect incubated for 5 days by MTT assay; type: functional, organism-based; conditions: Human immunodeficiency virus 1, MT4, 120 h
[7] = tested on: Human immunodeficiency virus 1; assay: Antiviral activity against HIV-1 harboring RT E138K mutant infected in human MT4 cells assessed as protection against virus-induced cytopathic effect incubated for 5 days by MTT assay; type: functional, organism-based; conditions: Human immunodeficiency virus 1, MT4, 120 h
[8] = tested on: Human immunodeficiency virus 1; assay: Antiviral activity against HIV-1 harboring RT K103N mutant infected in human MT4 cells assessed as protection against virus-induced cytopathic effect incubated for 5 days by MTT assay; type: functional, organism-based; conditions: Human immunodeficiency virus 1, MT4, 120 h
[9] = tested on: Human immunodeficiency virus 1; assay: Antiviral activity against HIV-1 harboring RT K103N/Y181C double mutant infected in human MT4 cells assessed as protection against virus-induced cytopathic effect incubated for 5 days by MTT assay; type: functional, organism-based; conditions: Human immunodeficiency virus 1, MT4, 120 h
[10] = tested on: Human immunodeficiency virus 1; assay: Antiviral activity against HIV-1 harboring RT F227L/V106A double mutant infected in human MT4 cells assessed as protection against virus-induced cytopathic effect incubated for 5 days by MTT assay; type: functional, organism-based; conditions: Human immunodeficiency virus 1, MT4, 120 h
[11] = target: Human immunodeficiency virus type 1 reverse transcriptase (Human immunodeficiency virus 1, UniProt Q72547); assay: Inhibition of recombinant wild type HIV-1 Reverse transcriptase incubated for 40 mins by Pico-green reagent based fluorescence analysis

Compound	CC50 at 120 h [1]	pEC50 [2]	selectivity ratio ([3]; MT4 cells)	pEC50 [4]	pEC50 [5]	pEC50 [6]	pEC50 [7]	pEC50 [8]	pEC50 [9]	pEC50 [10]	pIC50 [11]	selectivity ratio ([3]; mt4)
N#Cc1ccc(Nc2ncc(-c3cncc(F)c3)c(Nc3c(F)cc(-c4ccncc4)cc3F)n2)cc1	156 µM	7.77	9400	–	–	–	–	–	–	–	–	–
Cc1cc(-c2ccncc2)cc(C)c1Nc1nc(Nc2ccc(C#N)cc2)ncc1-c1ccc(N(C)C)nc1	> 39 µM	6.95	> 350	–	–	–	–	–	–	–	–	–
Cc1cc(-c2cnc(Nc3ccc(C#N)cc3)nc2Nc2c(C)cc(-c3ccncc3)cc2C)cnc1Cl	> 242 µM	7.37	> 5560	–	–	–	–	–	–	–	–	–
Cc1cc(-c2cnc(Nc3ccc(C#N)cc3)nc2Nc2c(C)cc(-c3ccncc3)cc2C)ccn1	14.9 µM	8.05	1630	7.03	7.12	7.15	7.54	7.68	6.03	5.88	6.90	–
N#Cc1ccc(Nc2ncc(-c3ccc(F)nc3)c(Nc3c(F)cc(-c4ccncc4)cc3F)n2)cc1	167 µM	8.05	18500	–	–	–	–	–	–	–	–	–
Cc1cc(-c2cnc(Nc3ccc(C#N)cc3)nc2Nc2c(F)cc(-c3ccncc3)cc2F)cnc1Cl	> 238 µM	6.82	> 1560	–	–	–	–	–	–	–	–	–
COc1ncc(-c2cnc(Nc3ccc(C#N)cc3)nc2Nc2c(C)cc(-c3ccncc3)cc2C)cc1N	81.1 µM	8.15	11300	7.18	7.51	7.32	7.85	8.00	6.94	5.96	–	–
N#Cc1ccc(Nc2ncc(-c3ccsc3)c(Nc3c(F)cc(-c4ccncc4)cc3F)n2)cc1	72.1 µM	8.15	10100	–	–	–	–	–	–	–	7.14	–
Cc1cc(-c2cnc(Nc3ccc(C#N)cc3)nc2Nc2c(F)cc(-c3ccncc3)cc2F)ccn1	162 µM	7.70	8090	–	–	–	–	–	–	–	–	–
N#Cc1ccc(Nc2ncc(-c3cccnc3)c(Nc3c(F)cc(-c4ccncc4)cc3F)n2)cc1	> 41.9 µM	7.72	> 2250	–	–	–	–	–	–	–	–	–
N#Cc1ccc(Nc2ncc(-c3ccnc(Cl)c3)c(Nc3c(F)cc(-c4ccncc4)cc3F)n2)cc1	103 µM	8.15	14100	–	–	–	–	–	–	–	6.86	–
N#Cc1ccc(Nc2ncc(-c3cncc(Cl)c3)c(Nc3c(F)cc(-c4ccncc4)cc3F)n2)cc1	159 µM	7.77	9340	–	–	–	–	–	–	–	–	–
Cc1cncc(-c2cnc(Nc3ccc(C#N)cc3)nc2Nc2c(C)cc(-c3ccncc3)cc2C)c1	11.5 µM	7.74	656	–	–	–	–	–	–	–	–	–
Cc1cncc(-c2cnc(Nc3ccc(C#N)cc3)nc2Nc2c(F)cc(-c3ccncc3)cc2F)c1	104 µM	7.39	2540	–	–	–	–	–	–	–	–	–
Cc1cc(-c2cnc(Nc3ccc(C#N)cc3)nc2Nc2c(F)cc(-c3ccncc3)cc2F)cc(C)n1	97.9 µM	7.00	984	–	–	–	–	–	–	–	–	–
N#Cc1ccc(Nc2ncc(-c3ccnc(F)c3)c(Nc3c(F)cc(-c4ccncc4)cc3F)n2)cc1	121 µM	8.00	12300	–	–	–	–	–	–	–	6.90	–
Cc1cc(-c2ccncc2)cc(C)c1Nc1nc(Nc2ccc(C#N)cc2)ncc1-c1ccsc1	> 264 µM	8.22	> 45200	7.33	7.39	7.47	7.37	8.10	6.59	6.34	7.14	–
N#Cc1ccc(Nc2ncc(-c3ccc(Cl)nc3)c(Nc3c(F)cc(-c4ccncc4)cc3F)n2)cc1	196 µM	8.00	19100	–	–	–	–	–	–	–	–	–
Cc1ccc(-c2cnc(Nc3ccc(C#N)cc3)nc2Nc2c(F)cc(-c3ccncc3)cc2F)cn1	194 µM	7.57	7300	–	–	–	–	–	–	–	–	–
Cc1cc(-c2cnc(Nc3ccc(C#N)cc3)nc2Nc2c(C)cc(-c3ccncc3)cc2C)cnc1F	> 249 µM	7.48	> 7640	–	–	–	–	–	–	–	–	–
Cc1cc(-c2cnc(Nc3ccc(C#N)cc3)nc2Nc2c(C)cc(-c3ccncc3)cc2C)cc(C)n1	36.1 µM	7.19	563	–	–	–	–	–	–	–	–	–
N#Cc1ccc(Nc2ncc(-c3ccco3)c(Nc3c(F)cc(-c4ccncc4)cc3F)n2)cc1	> 42.9 µM	8.15	> 6300	–	–	–	–	–	–	–	7.11	–

Compound	CC50 at 120 h [1]	pEC50 [2]	selectivity ratio ([3]; MT4 cells)	pEC50 [4]	pEC50 [5]	pEC50 [6]	pEC50 [7]	pEC50 [8]	pEC50 [9]	pEC50 [10]	pIC50 [11]	selectivity ratio ([3]; mt4)
Cc1cc(-c2cnc(Nc3ccc(C#N)cc3)nc2Nc2c(F)cc(-c3ccncc3)cc2F)cnc1F	> 246 µM	7.60	> 9800	–	–	–	–	–	–	–	–	–
Cc1cc(-c2ccncc2)cc(C)c1Nc1nc(Nc2ccc(C#N)cc2)ncc1-c1ccc(Cl)nc1	3.98 µM	9.00	3990	–	–	–	–	–	–	–	6.76	–
COc1ccc(-c2cnc(Nc3ccc(C#N)cc3)nc2Nc2c(F)cc(-c3ccncc3)cc2F)cn1	169 µM	7.59	6430	–	–	–	–	–	–	–	–	–
Cc1cc(-c2ccncc2)cc(C)c1Nc1nc(Nc2ccc(C#N)cc2)ncc1-c1cncc(F)c1	> 257 µM	7.37	> 6000	–	–	–	–	–	–	–	–	–
N#Cc1ccc(Nc2ncc(-c3ccc(N)nc3)c(Nc3c(F)cc(-c4ccncc4)cc3F)n2)cc1	143 µM	7.60	5790	–	–	–	–	–	–	–	–	–
Cc1cc(-c2ccncc2)cc(C)c1Nc1nc(Nc2ccc(C#N)cc2)ncc1-c1ccncc1	> 266 µM	7.85	> 19100	6.74	6.86	7.04	7.39	7.64	5.93	5.70	7.23	–
COc1ccc(-c2cnc(Nc3ccc(C#N)cc3)nc2Nc2c(C)cc(-c3ccncc3)cc2C)cn1	> 250 µM	7.11	> 3270	–	–	–	–	–	–	–	–	–
N#Cc1ccc(Nc2ncc(-c3cncc(N)c3)c(Nc3c(F)cc(-c4ccncc4)cc3F)n2)cc1	167 µM	7.15	2380	–	–	–	–	–	–	–	–	–
Cc1cc(-c2ccncc2)cc(C)c1Nc1nc(Nc2ccc(C#N)cc2)ncc1-c1ccco1	7.97 µM	8.40	2060	7.82	7.62	8.15	8.15	8.52	6.99	6.85	7.08	–
COc1ncc(-c2cnc(Nc3ccc(C#N)cc3)nc2Nc2c(F)cc(-c3ccncc3)cc2F)cc1F	> 238 µM	7.31	> 4810	–	–	–	–	–	–	–	–	–
COc1cc(-c2cnc(Nc3ccc(C#N)cc3)nc2Nc2c(F)cc(-c3ccncc3)cc2F)ccn1	> 246 µM	7.70	> 12400	–	–	–	–	–	–	–	–	–
COc1ncc(-c2cnc(Nc3ccc(C#N)cc3)nc2Nc2c(F)cc(-c3ccncc3)cc2F)cc1N	215 µM	7.36	4930	–	–	–	–	–	–	–	–	–
N#Cc1ccc(Nc2ncc(-c3cccs3)c(Nc3c(F)cc(-c4ccncc4)cc3F)n2)cc1	23.4 µM	7.96	2170	–	–	–	–	–	–	–	6.98	–
N#Cc1ccc(Nc2ncc(-c3ccncc3)c(Nc3c(F)cc(-c4ccncc4)cc3F)n2)cc1	> 41.9 µM	8.00	> 4360	–	–	–	–	–	–	–	–	–
Cc1cc(-c2ccncc2)cc(C)c1Nc1nc(Nc2ccc(C#N)cc2)ncc1-c1ccc(C(F)(F)F)nc1	> 3720 µM	7.35	> 822	–	–	–	–	–	–	–	–	–
CN(C)c1ccc(-c2cnc(Nc3ccc(C#N)cc3)nc2Nc2c(F)cc(-c3ccncc3)cc2F)cn1	52.9 µM	7.13	714	–	–	–	–	–	–	–	–	–
Cc1cc(-c2ccncc2)cc(C)c1Nc1nc(Nc2ccc(C#N)cc2)ncc1-c1cccs1	> 264 µM	7.96	> 24100	7.54	7.41	7.74	7.92	8.30	6.83	6.87	7.12	–
Cn1c(Cn2ccc(C(F)(F)F)c(Oc3cc(Cl)cc(C#N)c3)c2=O)n[nH]c1=O [DORAVIRINE]	–	–	–	–	–	–	–	–	–	–	7.48	–
O=C1Nc2ccc(Cl)cc2[C@@](C#CC2CC2)(C(F)(F)F)O1 [EFAVIRENZ]	> 7.49 µM	7.35	–	–	8.22	7.62	–	7.23	–	6.74	–	–
Cc1ccnc2c1NC(=O)c1cccnc1N2C1CC1 [NEVIRAPINE]	> 15 µM	–	–	< 5.00	–	5.75	6.85	–	< 5.00	< 5.00	–	–
Cc1cn([C@H]2C[C@H](N=[N+]=[N-])[C@@H](CO)O2)c(=O)[nH]c1=O [ZIDOVUDINE]	> 248 µM	7.59	–	7.48	7.43	–	7.52	7.60	–	7.55	–	> 9710
